According to US20260285850A1, “SUBSTITUTED OXAZOLIDINONES AND IMIDAZOLINONES AS HERBICIDES” (FMC CORPORATION, priority 2023, published 2026):

Key:
Type in all cases: in vivo
[1] = system: barnyardgrass (Echinochloa crus-galli); test: Test A preemergence soil spray, visual injury rating 0-100; conditions: 10 days
Method in brief: (§1)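 Compound in a non-phytotoxic, surfactant-containing solvent is applied either as a directed soil spray before seedlings emerge or onto emerged plants 2-10 cm tall; pots hold a loam-sand blend. Plants grow 10 days under greenhouse conditions and are rated by eye against untreated controls (0 no effect, 100 complete control).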

[2] = system: green foxtail (Setaria viridis); test: as above; conditions: 10 days
Method in brief: as §1

[3] = system: palmer (palmer amaranth, palmer pigweed, Amaranthus palmeri); test: as above; conditions: 10 days
Method in brief: as §1

[4] = system: ryegrass, Italian (italian ryegrass, Lolium multiflorum); test: as above; conditions: 10 days
Method in brief: as §1

[5] = system: wheat (Triticum aestivum); test: as above; conditions: 10 days
Method in brief: as §1

[6] = system: blackgrass (Alopecurus myosuroides); test: as above; conditions: 10 days
Method in brief: as §1

[7] = system: kochia (Bassia scoparia); test: as above; conditions: 10 days
Method in brief: as §1

[8] = system: corn (Zea mays); test: as above; conditions: 10 days
Method in brief: as §1

[9] = system: ragweed (common ragweed, Ambrosia artemisiifolia); test: as above; conditions: 10 days
Method in brief: as §1

[10] = system: soybean (Glycine max); test: as above; conditions: 10 days
Method in brief: as §1

[11] = system: oat, wild (wild oat, Avena fatua); test: as above; conditions: 10 days
Method in brief: as §1

[12] = system: barnyardgrass (Echinochloa crus-galli); test: Test A postemergence application, visual injury rating 0-100
Method in brief: as §1

[13] = system: green foxtail (Setaria viridis); test: as above
Method in brief: as §1

[14] = system: galium (catchweed bedstraw, Galium aparine); test: as above
Method in brief: as §1

[15] = system: palmer (palmer amaranth, palmer pigweed, Amaranthus palmeri); test: as above
Method in brief: as §1

[16] = system: horseweed (Erigeron canadensis); test: as above
Method in brief: as §1

[17] = system: ryegrass, Italian (italian ryegrass, Lolium multiflorum); test: as above
Method in brief: as §1

[18] = system: wheat (Triticum aestivum); test: as above
Method in brief: as §1

[19] = system: blackgrass (Alopecurus myosuroides); test: as above
Method in brief: as §1

[20] = system: kochia (Bassia scoparia); test: as above
Method in brief: as §1

[21] = system: corn (Zea mays); test: as above
Method in brief: as §1

[22] = system: ragweed (common ragweed, Ambrosia artemisiifolia); test: as above
Method in brief: as §1

[23] = system: soybean (Glycine max); test: as above
Method in brief: as §1

[24] = system: oat, wild (wild oat, Avena fatua); test: as above
Method in brief: as §1

[25] = system: sedge, umbrella (small-flower umbrella sedge, Cyperus difformis); test: Test B flooded paddy test, visual plant response rating 0-100; conditions: 250 g ai/ha, Flood, applied to paddy water, evaluated after 13 days
Method in brief: (§2)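 In this flooded assay, 2-leaf seedlings received compound through the water layer, kept at 3 cm over the soil. Plants were held 13 days in a greenhouse and then visually compared with control pots.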

[26] = system: ducksalad (Heteranthera limosa); test: as above; conditions: 250 g ai/ha, Flood, applied to paddy water, evaluated after 13 days
Method in brief: as §2

[27] = system: rice (Oryza sativa); test: as above; conditions: 250 g ai/ha, Flood, applied to paddy water, evaluated after 13 days
Method in brief: as §2

[28] = system: barnyardgrass (Echinochloa crusgalli); test: as above; conditions: 250 g ai/ha, Flood, applied to paddy water, evaluated after 13 days
Method in brief: as §2

[29] = 62 g ai/ha, 0 = no effect, 100 = complete control
[30] = 62 g ai/ha, postemergence, 10 days, 0 = no effect, 100 = complete control
[31] = Postemergence, 16 g ai/ha, greenhouse 10 days, 0 no effect, 100 complete control

Compound: C=CC1(C(=O)NC2C=CC(C(=O)O)C2)CN(c2cc(F)cc(F)c2)C(=O)O1 (mixture of isomers) [Compound 166]
- Barnyardgrass plant response rating ([1]; 16 g ai/ha, 0 to 100 scale): 40
- Barnyardgrass plant response rating (0-100) [1, 29]: 100
- Foxtail, Green plant response rating ([2]; 16 g ai/ha, 0 to 100 scale): 0
- Foxtail, Green plant response rating (0-100) [2, 29]: 50
- Pigweed, Palmer plant response rating ([3]; 16 g ai/ha, 0 to 100 scale): 20
- Pigweed, Palmer plant response rating (0-100) [3, 29]: 100
- Ryegrass, Italian plant response rating ([4]; 16 g ai/ha, 0 to 100 scale): 0
- Ryegrass, Italian plant response rating (0-100) [4, 29]: 90
- Wheat plant response rating ([5]; 16 g ai/ha, 0 to 100 scale): 60
- Wheat plant response rating (0-100) [5, 29]: 90
- Blackgrass plant response rating ([6]; 16 g ai/ha, 0 to 100 scale): 10
- Blackgrass plant response rating (0-100) [6, 29]: 70
- Kochia plant response rating ([7]; 16 g ai/ha, 0 to 100 scale): 0
- Kochia plant response rating (0-100) [7, 29]: 60
- Corn plant response rating ([8]; 16 g ai/ha, 0 to 100 scale): 20
- Corn plant response rating (0-100) [8, 29]: 60
- Ragweed plant response rating ([9]; 16 g ai/ha, 0 to 100 scale): 0
- Ragweed plant response rating (0-100) [9, 29]: 30
- Soybean plant response rating ([10]; 16 g ai/ha, 0 to 100 scale): 20
- Soybean plant response rating (0-100) [10, 29]: 90
- Oat, Wild plant response rating ([11]; 16 g ai/ha, 0 to 100 scale): 0
- Oat, Wild plant response rating (0-100) [11, 29]: 60
- Barnyardgrass plant response rating (0-100) [12, 30]: 100
- Barnyardgrass plant response rating (0 to 100 scale) [12, 31]: 90
- Foxtail, Green plant response rating (0-100) [13, 30]: 90
- Foxtail, Green plant response rating (0 to 100 scale) [13, 31]: 30
- Galium plant response rating (0-100) [14, 30]: 90
- Galium plant response rating (0 to 100 scale) [14, 31]: 70
- Pigweed, Palmer plant response rating (0-100) [15, 30]: 90
- Pigweed, Palmer plant response rating (0 to 100 scale) [15, 31]: 90
- Horseweed plant response rating (0-100) [16, 30]: 80
- Horseweed plant response rating (0 to 100 scale) [16, 31]: 50
- Ryegrass, Italian plant response rating (0-100) [17, 30]: 90
- Ryegrass, Italian plant response rating (0 to 100 scale) [17, 31]: 60
- Wheat plant response rating (0-100) [18, 30]: 90
- Wheat plant response rating (0 to 100 scale) [18, 31]: 90
- Blackgrass plant response rating (0-100) [19, 30]: 90
- Blackgrass plant response rating (0 to 100 scale) [19, 31]: 70
- Kochia plant response rating (0-100) [20, 30]: 80
- Kochia plant response rating (0 to 100 scale) [20, 31]: 80
- Corn plant response rating (0-100) [21, 30]: 100
- Corn plant response rating (0 to 100 scale) [21, 31]: 90
- Ragweed plant response rating (0-100) [22, 30]: 70
- Ragweed plant response rating (0 to 100 scale) [22, 31]: 40
- Soybean plant response rating (0-100) [23, 30]: 100
- Soybean plant response rating (0 to 100 scale) [23, 31]: 80
- Oat, Wild plant response rating (0-100) [24, 30]: 90
- Oat, Wild plant response rating (0 to 100 scale) [24, 31]: 90
- Plant response rating, Sedge, Umbrella (0 to 100 scale, 0 is no effect and 100 is complete control) [25]: 95
- Plant response rating, Ducksalad (0 to 100 scale, 0 is no effect and 100 is complete control) [26]: 85
- Plant response rating, Rice (0 to 100 scale, 0 is no effect and 100 is complete control) [27]: 80
- Plant response rating, Barnyardgrass (0 to 100 scale, 0 is no effect and 100 is complete control) [28]: 95
